Test results from patent US4721713A, “Process for inhibiting blood platelet aggregation and promoting vasodilation” (Toyo Jozo Kabushiki Kaisha, priority 1986, dated 1988).
Read-outs that look alike come from different tables or passages of the source.

Legend:
[1] = tested on: platelet aggregation in platelet-rich rabbit plasma; experiment: Inhibitory effect on blood platelet aggregation, effect in vitro (ADP-induced); assay type: cell-based; details: for inhibition at 100 µM: Oryctolagus cuniculus, Platelet, 0.05 h, read-out: Inhibition Ratio on Platelet Aggregation (Mean ± S.E)
Procedure: An aggregating agent, adenosine-5'-diphosphate (final concentration 2.5 μM), was added thereto and the platelet aggregating potential was measured with an aggregometer.

[2] = tested on: blood flow in left hind leg; experiment: Vasodilating activity upon intra-arterial administration (perfused left hind leg); assay type: in vivo, Mongrel dogs; details: for Vasodilating Activity (relative to blood flow increase by papaverine 30 μg as 100%): 100 μg, i.a., mean ± S.E. for 3 animals
Procedure: Mongrel dogs anesthetized with urethane (450 mg/kg iv) and α-chlora-lose (45 mg/kg iv) after pretreatment with morphine (1.5 mg/kg, sc) were secured in a supine position. Blood from the right femoral artery was introduced into the left femoral artery through a circulation pump and the left hind leg was perfused under constant pressure by connection with a Starling's resistance in an exosomatic circulatory system. The prefusion pressure was set slightly higher than the mean blood pressure of each animal and the change in blood flow upon intra-arterial injection of the test compound was determined. The results, showing specific activity as compared with a value indicating the degree of increase in the amount of blood flow by papaverine (30 μg, iv) as 100%, are shown in Table 4.

[3] = tested on: number of platelets in the circulating blood; experiment: Effect in vivo: number of platelets in circulating blood after E. coli lipopolysaccharide; design: species or system Male Wistar rats; details: for Number of Platelets, Exp. 1 / Number of Platelets, Exp. 2: ratio pre- and post-administration, LPS 5 mg/kg i.p., 3 hours
Procedure: Male Wistar rats, five animals in a group, were administered per orally the agents to be tested. After one hour, E. coli lipopolysaccharide (5 mg/kg) was injected intraperitoneally and 3 hours thereafter blood samples were collected and measured as to the number of platelets in the circulating blood to determine the ratio of platelets pre- and post-administration of the agents. The tests were repeated twice.

[4] = tested on: experimental disseminated intravascular coagulation; experiment: Effect on disseminated intravascular coagulation (E. coli lipopolysaccharide infusion); assay type: in vivo, Male Wistar rats; details: 100 mg/kg p.o.
Procedure: Male Wistar rats, seven animals in a group, were administered per orally the agents (100 mg/kg) to be tested. After one hour, E. coli lipopolysaccharide (50 mg/kg) was continuously injected intravenously for four hours. A control group was given physiological saline intravenously under the same conditions.
Blood was collected immediately after finishing the injection to measure the number of platelets, the activated partial thromboplastin time, the prothrombin time and the amount of fibrinogen. In the control group, in which E. coli lipopolysaccharide was injected, a marked decrease in the number of platelets and the amount of fibrinogen and a marked prolongation of the activated partial thromboplastin time and the prothrombin time are observed.

[5] = tested on: arterial blood flow (vertebral, coronary, renal, femoral); experiment: Vasodilating activity upon intravenous administration (regional arterial blood flow); assay type: in vivo, mongrel dog; details: FIG. 1
Source text: A cuff-type probe for measuring blood flow was applied to the left vertebral artery, the left anterior descending coronary artery, the left renal artery and the right femoral artery of a mongrel dog anesthetized in the same way as hereinabove and the blood flow was continuously measured. The blood pressure was monitored by a pressure transducer connected to a cannula inserted into the left femoral artery, and the heart rate was monitored through a tachometer by triggering the R-wave of lead II of an electrocardiograph. The agent to be tested was injected into the left venous cephalica. The results are shown in FIG. 1, in which the ordinate indicates the response ratio and the abscissa indicates dosages by intravenous administration, and in which

anoxia = experiment: Protective effect against anoxia; assay type: in vivo, Male ddY strain mice; details: for Survival Time: 200 mg/kg p.o., mean ± S.E.
Procedure: The present compound and a control were administered per orally 30 or 60 mins. before the test.

PAF-induced shock = experiment: Effect against platelet activated factor (PAF)-induced shock; assay type: in vivo, Male ddY strain mice; details: 100 mg/kg p.o.
Procedure: Male ddY strain mice, male, 10 animals in a group, were administered per orally the compound of the present invention (100 mg/kg), and after one hour PAF (60 μg/kg) was administered intravenously to determine the ratio of mortality.

Acute toxicity in mice = assay type: in vivo; details: mouse, in vivo
mice = experiment: Acute toxicity in mice; assay type: in vivo; details: intravenous 100 mg/kg
Acute toxicity in rats = assay type: in vivo, male Wister rats; details: rat, in vivo; oral, rats
rats = experiment: Acute toxicity in rats; assay type: in vivo, male Wister rats
[6] = tested on: L5178Y murine lymphoblastoma; experiment: Cytotoxicity; assay type: cell-based; details: 37° C. for 18 hours
Procedure: To L5178Y murine lymphoblastoma (2×10^4 cells/ml) suspended in a medium (27 ml) comprising Fischer's culture medium including 10% bovine serum, were added test agents in solution (0.3 ml) diluted with a culture medium and the material was incubated at 37° C. for 18 hours. Growth of the cells was determined by color change. Growth inhibition of the cells was not observed at any concentration of 20 μg/ml and 100 μg/ml of the compound of the present invention, and so no cytotoxicity was observed.

[7] = tested on: microorganism strains TA100, TA1535, WP2 uvr A, TA98, TA1537 and TA1538; experiment: Mutagenicity, backward mutation test; assay type: cell-based
Procedure: A backward mutation test using microorganism strains TA100, TA1535, WP2 uvr A, TA98, TA1537 and TA1538 was performed by the method according to Iyer et al. [N. Y. Iyer and W. Szybalski, Appl. Microbiol., 6: 37 (1958)]. The test agents were tenfold diluted in six stages of concentration of 0.00333-333 μg/disc.

[8] = final concentration 100 μM, ADP 2.5 μM, 37° C. for 3 minutes
[9] = final concentration 100 μM, ADP 2.5 μM
[10] = LPS 50 mg/kg i.v. over four hours
[11] = PAF 60 μg/kg i.v. after one hour

Cc1nc(C)c(C)nc1C [Tetramethylpyrazine, tetramethylpyrazine]
inhibition at 100 µM [1, 8]: 3 ± 1.6%
Inhibitory effect on blood platelet aggregation (in words) [1, 9]: no inhibitory effect
Vasodilating Activity (relative to blood flow increase by papaverine 30 μg as 100%) [2]: 19.3 ± 0.9%

Cc1nc(O)c(C(C)C)nc1C.Cl [Present compound, 2-hydroxy-3-isopropyl-5,6-dimethylpyrazine hydrochloride]
inhibition at 100 µM [1, 8]: 69.6 ± 5.4%
Inhibitory effect on blood platelet aggregation (in words) [1, 9]: distinct inhibitory effect
Number of Platelets, Exp. 1 ([3]; 100 mg/kg p.o.): 58.2 ± 7.8%
Number of Platelets, Exp. 2 ([3]; 100 mg/kg p.o.): 55.9 ± 14.0%
Effect on decrease of platelet number (in words) ([3]; 100 mg/kg per orally, compared with ticlopidine 200 mg/kg oral): inhibits the decrease of platelet number, which is comparable to an oral dose of 200 mg/kg ticlopidine
Activated Partial Thromboplastin Time [4, 10]: 48.5 ± 7.4 s
Fibrinogen [4, 10]: 77.2 ± 13.1 mg/dL
Platelet Number [4, 10]: 177 ± 51 × 10^3 /mm^3
Prothrombin Time [4, 10]: 14.3 ± 1.4 s
Effect against all the factors tested (in words) ([4]; experimental disseminated intravascular coagulation): significant effect against all the factors tested
Vasodilating Activity (relative to blood flow increase by papaverine 30 μg as 100%) [2]: 100.7 ± 19.1%
Vasodilating activity compared with tetramethylpyrazine (in words) ([2]; intra-arterial): markedly stronger vasodilating activity than that of the control drug, tetramethylpyrazine
Coronary arterial blood flow (in words) [5]: increases blood flow in the vertebral artery, in the coronary artery
Femoral arterial blood flow (in words) [5]: increases blood flow in the vertebral artery, in the coronary artery and in the femoral artery
Renal arterial blood flow (in words) [5]: does not affect the renal arterial blood flow
Selectivity for vertebral and coronary arterial blood flow (in words) [5]: Selective effects on the vertebral arterial blood flow and the coronary arterial blood flow
Vertebral arterial blood flow (in words) [5]: increases blood flow in the vertebral artery
Survival Time (anoxia; pretreatment time 30 min.): 42.7 ± 1.6 s
Survival Time (anoxia; pretreatment time 60 min.): 48.1 ± 1.9 s
Survival time (in words) (anoxia; pretreatment per orally): Significant prolongation of survival time
Action against PAF-induced shock (in words) (PAF-induced shock): protective action
Mortality, Experiment 1 (PAF-induced shock; [11]): 1/10
Mortality, Experiment 2 (PAF-induced shock; [11]): 3/10
LD50 (Acute toxicity in mice; intravenous, read-out: LD50): ~200 mg/kg
LD50 (Acute toxicity in mice; oral, read-out: LD50 oral): 555 mg/kg
Death (mice): no death was observed
LD50 (Acute toxicity in rats): 903 mg/kg
Death (rats; intravenous 50 mg/kg, rats): no death was observed
Dose attainable due to the solubility of the compound (rats; rat, in vivo, iv): up to 50 mg/kg
Growth inhibition of the cells ([6]; 20 μg/ml): not observed
Growth inhibition of the cells ([6]; 100 μg/ml): not observed
Mutagenesis ([7]; 0.00333-333 μg/disc, any concentration): No mutagenesis was found
Mutagenesis under metabolic activation ([7]; metabolic activation using an S-9 mixture): no mutagenesis was observed

CC(=O)Oc1ccccc1C(=O)O [Acetyl salicylic acid, acetyl salicylic acid]
inhibition at 100 µM [1]: -0.6 ± 0.6%
Inhibitory effect on blood platelet aggregation (in words) [1, 9]: no inhibitory effect

Clc1ccccc1CN1CCc2sccc2C1 [Ticlopidine, ticlopidine, reference compound]
inhibition at 100 µM [1, 8]: -1.2 ± 1.2%
Inhibitory effect on blood platelet aggregation (in words) [1, 9]: no inhibitory effect
Number of Platelets, Exp. 1 ([3]; 200 mg/kg p.o.): 57.9 ± 12.0%
Number of Platelets, Exp. 2 ([3]; 200 mg/kg p.o.): 63.4 ± 19.4%
